The values below come from patent US12233129B2, “Methods and compositions for the treatment of cancer” (priority 2019, dated 2025).

Assay [1] concerns SW-48 (WT-p53) colon cancer cells. Nature of the assay: Cell viability / clonogenic survival with and without mot-2 inhibitor MKT-077. The conditions noted are these: VTD with mot-2 inhibitor MKT-077, 72 hours. Also on record: dose or concentration left out as unconfirmed. It is filed as cell-based, human. As for the experimental part: We decided to confirm whether VTD-induced tumor suppression is indeed mediated via the UBXN2A-mot-2-p53 axis (FIG. 18H). After initial verification with WB (FIG. 18A), HCT-116 (p53+/+ and p53 −/−) and LoVo were treated with VTD for 24, 48, and 72 hours (FIG. 18B-D). […] We defined this phenomenon as a delayed cytotoxic response, since it occurs through UBXN2A transcription, as previously described for other anti-cancer agents. […] In the second set of experiments, we treated two stable UBXN2A silenced clones of HCT-116 along with controls with VTD. […] Staurosporine-treated cells were used as a positive control (S4F). […] Finally, to understand the contribution of mot-2 to the anti-cancer mechanism of VTD, we used a mot-2 inhibitor known as MKT-077 [7] along with VTD in well-differentiated SW-48 (WT-p53) colon cancer cells for 72 hours. Due to the critical role of mot-2 in the mitochondria, we could not use a silencing strategy for mot-2 in this set of experiments.
FIG. 18: Veratridine (VTD) functions via the UBXN2A-mot-2-p53 axis. (A) WB confirmed the presence and the absence of p53 protein in HCT-116 p53^(+/+) and HCT-116 p53^(−/−) cancer cell lines, respectively. […] (F) In another set of experiments, UBXN2A-silenced cells were treated with VTD (100, 200, and 300 μM) for 24 hours. Cells were then labelled with Sytox Red followed by flow cytometry analysis. […] (G) SW48 well-differentiated colon cancer cells with WT-p53 were treated with MKT-077 (5 mg/ml), an mot-2 inhibitor, along with VTD for 72 hours. […] (H) This flowchart recapped the sequence of proteins which activate and function upon VTD exposure to decrease cell viability. The data is shown as mean±SEM of three independent experiments (n=3) in triplicate where *p<0.05 using Benferroni's modified student's t-test.

The test system of assay [2] is HCT-116. As for the experimental part:
(§1) Besides the cell viability assay, we decided to measure the apoptotic activity in the above combination therapy.
(§2) Cells were treated with 5-FU (5-100 μM) and etoposide (1-50 μM) along with VTD (30 and 100 μM respectively) in two different set of experiments for 24 hours.
(§3) An MTT (3[4, 5-dimethylthiazol-2-yl]-2, 5-diphenyltetrazolium bromide) assay was performed to measure the viability of cells. Briefly, cells were seeded at a density of 10×10^3 cells per well in phenol-red free growth media. After 24 hours, cells were treated with various concentrations of VTD±5-FU or etoposide. After incubation, an MTT dye was added to the cells for 2-4 hours. The absorbance of samples was measured at 630 nm using an EXL808 absorption spectrophotometer (Biotek, Winooski). The viability of cells was calculated as % of control. Cell detachment and clonogenic survival assays were conducted as previously described. Early apoptosis, caspase-3, cleaved PARP and Sytox Red (Life Technology, NY, USA) were measured by the Accuri C6 flow cytometer system (BD Pharmingen, MD, USA).[54]
(§4) (A-H) (A-C) HCT-116 and (D-F) LoVo were treated with VTD (10-300 μM) for 24, 48, and 72 hours. A suboptimal dose of Etoposide (ETO) ([…]) was added to cells for the last 24 hours only. The viability of cells was determined as % of control (untreated cells) using an MTT assay. […] (G-H) HCT-116 (G) and LoVo (H) cells were treated with VTD (10-200 μM) and a suboptimal dose of ETO (5 μM) for 24 hours. Cells were then stained with Annexin V apoptotic marker. […] (I-L) HCT-116 and LoVo cells were treated with different doses of 5-FU (5-100 μM, I-J) and ETO (1-50 μM, K-L) along with VTD (30 μM and 100 μM respectively) for 24 hours.

Assay [3] deals with LoVo. As for the experimental part: as §1, §2, §3, §4
Assay [4] relates to HCT-116. As to the kind of experiment: Annexin V early apoptosis, VTD plus etoposide. Format: cell-based, human. The conditions noted are these: VTD 10-200 μM plus etoposide 5 μM, 24 hours. As for the experimental part: (§5) The viability of cells was calculated as % of control.
(§6) Cells were then stained with Annexin V apoptotic marker.

For assay [5], the system named is LoVo. Nature of the assay: Annexin V early apoptosis, VTD plus etoposide. It is filed as cell-based, human. The conditions noted are these: VTD 10-200 μM plus etoposide 5 μM, 24 hours. The method, then:
as §5, §6

The test system of the next assay is p53. Nature of the assay: Western blot of p53 in cytoplasm and nuclear fractions of etoposide-treated HCT-116 cells. Format: cell-based, human. The conditions noted are these: 20 and 50 μM etoposide, 24 h. An excerpt:
Small molecules, p53 c-terminus peptides, and silenced mot-2 abrogate mot-2-p53 complexes, resulting in p53 nuclear localization. Because UBXN2A is capable of releasing p53 from mot-2, we decided to determine whether UBXN2A can lead to p53 nuclear accumulation in a similar mechanism. HCT-116 cells were transiently transfected with different amounts of UBXN2A plasmid. Exogenous UBXN2A was detected dominantly in the cytoplasm fraction (FIG. 4a), and, therefore, it is an ideal model to identify the cellular consequences of UBXN2A gain-of-function. After 48 h, nuclear and cytoplasmic fractions were collected, followed by WB analysis (FIGS. 4a-d). […] Similar to several previously reported scenarios,^23 co-upregulation of UBXN2A with p53 may be essential to inhibiting mot-2 and delivering maximum p53 into nuclei during the initiation of genotoxic stress. Similar results were obtained in response to single DNA-strand damage produced by UVB irradiation. In the next step, we decided to determine whether UBXN2A increases the transcriptional activities of p53. We found overexpression of UBXN2A led to upregulation of BAX protein^24 (FIG. 4g). In addition, the level of cleaved PARP increased in the presence of overexpressed UBXN2A (FIG. 4g). […]

The subject of the next assay is UBXN2A. As to the kind of experiment: RT-PCR and western blot of UBXN2A in etoposide-treated HCT-116 cells. It is filed as cell-based, human.
The target in a further assay is T1, p53-mot-2 (Homo sapiens, UniProt P38646).
T1 construct: purchased SignalChem (Richmond, CANADA)
Nature of the assay: In vitro competition immunoprecipitation assay (mot-2, p53, recombinant UBXN2A). It is filed as binding. An excerpt: Because mot-2 binds to the […] of p53 and sequesters WT-p53 in the cytoplasm, we asked whether binding UBXN2A to mot-2 can alter mot-2's affinity for p53. […] That is, the two complexes might be mutually exclusive. To further determine whether the binding of mot-2 to UBXN2A decreases the binding of mot-2 to p53, we performed two set of immunoprecipitation experiments with recombinant UBXN2A. FIG. 3a describes an in vitro competition immunoprecipitation assay system containing mot-2, p53, and an increasing amount of recombinant UBXN2A. […] The lowest binding between p53-mot-2 was observed when UBXN2A and mot-2 were present in approximately a 1:1 ratio by their molecular mass (lane 1 versus lane 2). In FIG. 3b, cytosolic fractions enriched with mot-2 and p53 proteins (fractions 3-5, FIG. 2e) were incubated with recombinant GST-tag human UBXN2A protein. After the initial 2 h of incubation, samples were subjected to immunoprecipitation with anti-p53 antibodies. GST-UBXN2A and endogenous mot-2 ratio was 2.5:1 in the reaction. […] Next, we decided to verify whether endogenous UBXN2A can interfere with mot-2-p53 binding using an ex vivo model. […]
FIG. 3 UBXN2A and p53 compete for binding to mot-2. […] Mot-2 proteins were eluted from the beads and analyzed by western blotting using an anti-mot-2 antibody. […]

Entries after “also recorded” stand apart in the source; their conditions may differ.

T1 sequence (P38646 47-679): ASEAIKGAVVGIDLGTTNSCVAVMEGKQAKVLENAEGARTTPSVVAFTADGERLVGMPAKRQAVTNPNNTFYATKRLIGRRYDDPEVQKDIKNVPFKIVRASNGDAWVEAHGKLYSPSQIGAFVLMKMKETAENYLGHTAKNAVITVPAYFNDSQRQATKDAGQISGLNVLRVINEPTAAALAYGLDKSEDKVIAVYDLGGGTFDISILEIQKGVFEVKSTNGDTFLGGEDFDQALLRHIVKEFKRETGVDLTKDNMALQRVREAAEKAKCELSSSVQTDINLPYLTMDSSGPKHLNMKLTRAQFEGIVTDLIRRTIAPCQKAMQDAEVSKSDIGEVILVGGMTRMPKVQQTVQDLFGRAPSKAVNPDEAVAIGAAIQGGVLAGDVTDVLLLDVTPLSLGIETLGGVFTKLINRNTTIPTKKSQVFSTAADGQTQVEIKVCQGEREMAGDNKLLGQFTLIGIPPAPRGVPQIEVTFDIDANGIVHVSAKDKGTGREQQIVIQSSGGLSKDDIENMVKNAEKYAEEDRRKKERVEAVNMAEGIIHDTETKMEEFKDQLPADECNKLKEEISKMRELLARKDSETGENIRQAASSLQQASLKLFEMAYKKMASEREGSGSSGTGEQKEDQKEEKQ

As for `CCn1c(=O)/c(=C2\Sc3ccccc3N2C)s/c1=C\c1cccc[n+]1CC.[Cl-]` [MKT-077], in assay [1], the “cell viability / colony number” value was “neutralizes the cytotoxic effect of VTD”.

On to `COc1cc([C@@H]2c3cc4c(cc3[C@@H](O[C@@H]3O[C@@H]5CO[C@@H](C)O[C@H]5[C@H](O)[C@H]3O)[C@H]3COC(=O)[C@H]23)OCO4)cc(OC)c1O` [etoposide], for which the “cell viability (MTT), combination” value in the assay on HCT-116 [2] and in the assay on LoVo [3] was “significantly enhanced the VTD-induced decrease in cell viability” throughout. The “effectiveness of etoposide alone (MTT)” value in the assay on LoVo [3] (LoVo versus HCT-116, time-dependent) is “more effectiveness in well differentiated cells (LoVo) than HCT-116 cells”. The “early apoptosis (Annexin V)” value in the assay with HCT-116 [4] and in the assay with LoVo [5] was “significantly sensitizes” each time. The “p53 upregulation and nuclear localization” value in the assay with p53 was “upregulation and nuclear localization of p53 becomes significant”. Besides, in the assay on UBXN2A (etoposide 20 and 50 μM, 24 h), the UBXN2A protein entry is “increased; also recorded: significant upregulation of UBXN2A”. Also, the “UBXN2A mRNA” value with UBXN2A (etoposide 24 h) was “increased; also recorded: enhances transcription of UBXN2A”.

B1: recombinant human UBXN2A: recombinant GST-tag human UBXN2A protein (SignalChem) (protein, UniProt P68543 1-259, looked up)
UBX domain-containing protein …: MKDVDNLKSIKEEWVCETGSDNQPLGNNQQSNCEYFVDSLFEEAQKVSSKCVSPAEQKKQVDVNIKLWKNGFTVNDDFRSYSDGASQQFLNSIKKGELPSELQGIFDKEEVDVKVEDKKNEICLSTKPVFQPFSGQGHRLGSATPKIVSKAKNIEVENKNNLSAVPLNNLEPITNIQIWLANGKRIVQKFNITHRVSHIKDFIEKYQGSQRSPPFSLATALPVLRLLDETLTLEEADLQNAVIIQRLQKTASFRELSEH
modifications: GST tag
As to B1, the “mot-2 protein-bound p53” value with p53-mot-2 (HCT-116 cytosolic fractions 3-5, GST-UBXN2A to endogenous mot-2 ratio 2.5:1, 2 h) is recorded as “decreased the amount of mot-2 protein-bound p53”. Further, in the assay with p53-mot-2 (recombinant GST-p53, GST-mot-2, increasing amounts of UBXN2A), the “mot-2 pulled down by anti-p53 antibodies” value is on record as “decreased the intensity of mot-2 bands”.
